PubChem BioAssay AID179 (DTP/NCI, 2004)
Active and inactive are the calls of the source.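 How the source made its calls: active means compounds giving half or more protection of infected cells from virus-caused growth loss, again on retest; inactive means the rest.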

Tested on: CEM cells HIV-1 protection, formazan growth assay
Experiment: NCI AIDS Antiviral Assay
Details: for IC50: measured here: growth of uninfected CEM cells
In short: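 Category rules: moderately active means at least 50% protection on retest, and confirmed active means 100% protection reproducibly. The underlying data came from a formazan growth assay in HIV-1-infected CEM cells.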

Compound	EC50	IC50	outcome
Cc1cc(N=O)cc(Cl)c1O	> 200 µM	10.5 µM	–
COC(=O)C1=C(C(=O)OC)C(N(C)C)C(C(=O)OC)=C(C(=O)OC)S1	> 200 µM	> 200 µM	–
Cc1ccc(C2=C(c3ccccc3)C(=O)C(c3ccccc3)=C2c2ccc(C)cc2)cc1	> 87.1 µM	> 87.1 µM	–
CC(=O)/C(=C/c1cccc(C#N)c1)C(=O)c1ccccc1	> 36.3 µM	17.4 µM	–
COc1ccc(N2C(=O)C3c4[nH]c5c(C)cccc5c4C4CCC(c5ccccc5)CC4C3C2=O)cc1 (configuration not stated)	> 200 µM	60.3 µM	–
CCCCC1Sc2cc(OC)cc3c2N(CCN3)C1=O (configuration not stated)	> 200 µM	28.2 µM	–
O=[N+]([O-])c1ccc(O)c(CN(Cc2ccccc2)Cc2c(O)ccc3ccccc23)c1	> 200 µM	> 200 µM	–
Cc1ccc(C2=Nn3c(nc4sc(-c5ccccc5)cc4c3=O)SC2)cc1	> 100 µM	> 100 µM	–
NCCSSSSCCN	> 132 µM	34.7 µM	–
COC1/C=C/OC2(C)Oc3c(C)c(O)c4c(O)c(c(C=NOC(c5ccccc5)c5ccccc5)c(O)c4c3C2=O)NC(=O)/C(C)=C/C=C/C(C)C(O)C(C)C(O)C(C)C(OC(C)=O)C1C (configuration not stated)	> 200 µM	4.79 µM	–
COC(=O)C1(CCC(=O)N(C)c2ccccc2)NNC2C(=O)N(c3ccccc3)C(=O)C21 (configuration not stated)	> 200 µM	> 200 µM	–
CCOC(=O)C(NC(=O)Nc1ccccc1F)(OC)C(F)(F)F (configuration not stated)	> 200 µM	> 200 µM	–
O=C1/C(=C/c2ccc(F)cc2)Cc2ccccc21	> 30.2 µM	> 30.2 µM	–
Cc1nnc(NS(=O)(=O)c2ccc(N=Nc3c(N)n(C)c(=O)n(C)c3=O)cc2)s1	–	–	inactive
CC(=O)Nc1ccc(C(O)/C(=N/N)c2nc3ccc(Cl)cc3[nH]c2=O)cc1 (configuration not stated)	> 162 µM	> 162 µM	–
CN1CCN(CCCN2c3ccccc3Sc3ccc(Cl)cc32)CC1	> 200 µM	3.72 µM	–
CC(=O)/C(=C/N1C(=O)CC(=O)NC1=S)C(=O)Nc1ccccc1	> 200 µM	> 200 µM	–
CC(=O)OCC1OC(n2ccc(-n3cncn3)nc2=O)CC1N=[N+]=[N-] (configuration not stated)	87.1 µM	> 200 µM	–
O=C(Cn1c2c(c3ccccc31)CCCC2)N1CCCCC1	> 200 µM	> 200 µM	–
[Co+2].[O-]c1ccccc1C=NCc1ccccc1.[O-]c1ccccc1C=NCc1ccccc1	> 19.5 µM	> 19.5 µM	–
CCCN(CCC)C(=S)N/N=C/c1cccc(C)n1	> 200 µM	0.0631 µM	–

Compound	EC50	IC50	outcome
CC(=O)C1(N=Nc2ccc(S(=O)(=O)Nc3ccccn3)cc2)CCOC1=O (configuration not stated)	> 200 µM	> 200 µM	–
O=C(Nc1ccc(Cl)c(Cl)c1)N1c2ccccc2Sc2ccccc21	–	–	inactive
Cn1c(COC(=O)Nc2ccccc2)c(COC(=O)Nc2ccccc2)c2ccc3cc(Cl)c(Cl)cc3c21	> 200 µM	0.468 µM	–
OC1c2ccccc2C2C(O)c3ccccc3C12 (configuration not stated)	–	–	inactive
Cc1cc(C)nc(NS(=O)(=O)c2ccc(Nc3c4ccc(Cl)cc4nc4c(C(=O)NCCN(C)C)cccc34)cc2)n1	> 214 µM	89.1 µM	–
CN1CCN=C1c1ccc(NC(=O)c2ccc(C(=O)Nc3ccc(C4=NCCN4C)cc3)cc2)cc1	> 200 µM	74.1 µM	–
CN(C)CCNC(=O)c1nc([N+](=O)[O-])cn1C	> 200 µM	> 200 µM	–
CCOC(=O)C(CCN1CCC2(CC1)C(=O)N(C)CN2c1ccccc1)C(=O)OCC	> 200 µM	> 200 µM	–
CC(C(=O)NCNC(=O)c1ccccc1)C(=O)Nc1ccccc1 (configuration not stated)	–	–	inactive
COc1ccc(C(OCC2OC(n3ccc(Oc4c(F)c(F)c(F)c(F)c4F)nc3=O)CC2OP(OCCC#N)N(C(C)C)C(C)C)(c2ccccc2)c2ccc(OC)cc2)cc1 (configuration not stated)	> 200 µM	89.1 µM	–
Cc1ccc(C(=O)Nc2ccc(CP(=O)(O)O)cc2CP(=O)(O)O)cc1NC(=O)c1cccc(NC(=O)Nc2cccc(C(=O)Nc3cc(C(=O)Nc4ccc(CP(=O)(O)O)cc4CP(=O)(O)O)ccc3C)c2)c1	> 100 µM	> 100 µM	–
COC(=O)C12C3C4C1C1C2C3C41I (configuration not stated)	> 126 µM	> 126 µM	–
O=C1c2cc3c(cc2CC12Cc1ccc4c(c1C2=O)CCC4)CCC3 (configuration not stated)	> 200 µM	> 200 µM	–
Fc1cccc(C2SCc3nc4ccccc4n32)c1F (configuration not stated)	–	–	inactive
CC(=O)OCCC1c2ccccc2-n2nc(-c3ccccc3)c(O)c21 (configuration not stated)	> 200 µM	11.2 µM	–
Cc1cc(=O)[nH]c2cc(NC(=O)C(CCCN=C(N)N)NC(=O)OCc3ccccc3)ccc12 (configuration not stated)	> 200 µM	> 200 µM	–
CC(C)CC1=CC(=O)CN(CCc2c[nH]c3ccccc23)C1	> 240 µM	126 µM	–
COC(=O)C1(NC(=O)C(CC(=O)OCc2ccccc2)NC(=O)OCc2ccccc2)CCCCCC1 (configuration not stated)	> 200 µM	107 µM	–
Cc1cnoc1/N=C1\C=C(Nc2oncc2C)C(=O)c2ccccc21	> 4.37 µM	> 4.37 µM	–
O=[N+]([O-])C1=Cc2cc(Cl)ccc2OC1c1cccc2ccccc12 (configuration not stated)	> 2 µM	0.977 µM	–
